Several values for one entry are separate records, joined by “and”; a condition that tells them apart may be missing. Identical values can stand only once.
Experiments:
serum anti-TAChR Ab = experiment: Anti-TAChR IgG and IgG1 radioimmunoprecipitation assay (Example IV); assay type: in vivo, mouse
Procedure: Anti-TAChR Ab assay. Sera was obtained from each mouse after each clinical testing and at the end of the observation period (12 weeks after beginning of the TAChR immunization). The serum concentration of anti-TAChR IgG and IgGI was determined by radioimmunoprecipitation assay, using TAChR solubilized in Triton X-100 and labeled by the binding of ^125I-α-BTX (Bellone et al., 1991a). As a secondary Ab, either rabbit anti-mouse IgG produced, or goat anti-mouse IgG1 (Sigma, St. Louis, Mo.), was used. The anti-TAChR Ab concentration is expressed as μM precipitated ^125I-α-BTX binding sites.
Two types of experiments were carried out. In one of them the total anti-TAChR Ab in the sera of individual mice, obtained 8, 10 and 12 weeks after the first TAChR immunization, was determined. In the other, the anti-TAChR IgG1 concentration was determined, as well as the total anti-TAChR IgG concentration, in sera obtained at the end of the observation period. For this second assay pooled sera from five mice that had received identical treatments was used.

[1] = system: anti-TAChR and anti-peptide IgG subclasses; experiment: ELISA of anti-TAChR and anti-peptide IgG subclasses (Example III); assay type: in vivo, mouse; conditions: IL-4 KO mice, nasal α epitope pool
Procedure: Assay of Anti-TAChR and Anti-peptide IgG Subclasses. The relative concentration of IgG subclasses of anti-TAChR and anti-peptide antibodies in the sera of peptide- and sham-treated mice was measured by ELISA after immunization with TAChR. Pooled sera from three-four mice that had received identical treatments was used. The sera used in this assay was obtained at the end of the observation period (10 weeks after beginning of the anti-TAChR immunization).
Ninety-six well plates (Nunc, Karstrup, Denmark) were washed extensively and incubated as follows: 4 hours with a 10 μg/ml solution of TAChR or of individual peptides Tα150-169, Tα181-200 and Tα360-378 in 0.1 M Na phosphate buffer, pH 9.5 (two wells for each antigen), 1 hr with PBS plus 3% bovine serum albumin (BSA), 2 hours with mouse serum (serial dilutions from 1:100 to 1:40,000 in PBS plus 3% BSA), 1 hr with a dilution 1:1000 in PBS plus 3% BSA of goat antibody specific for the total IgG, or IgGl, or IgG2a, or IgG2b or IgG3 (Mouse Monoclonal Isotyping Kit, Sigma, St. Louis, Mo.), and 30 minutes with a 1:3000 dilution of peroxidase-conjugate rabbit anti-goat IgG (Sigma) in PBS plus 3% BSA. The plates were washed, and developed them for 20-60 minutes with ABTS peroxidase substrate system (Kirkegaard & Perry Laboratories Inc., Gaithersburg, Md.). […] The OD was read at 405 nanometers. […]

spleen CD4+ T-cells = experiment: Lymphocyte proliferation assay, spleen CD4+ T-cells (Example IV); assay type: cell-based, mouse
Procedure: Lymphocyte proliferation assay. Five to seven days after the last TAChR immunization, CD4^+ T-cells (Bellone et al., 1991a) were purified from the pooled spleens of three to four mice that had received identical treatments. Irradiated (3000 rad) spleen cells from non-immunized mice were diluted as needed in RPMI-1640 (Gibco, Grand Island, N.Y.) supplemented with 10% heat inactivated fetal calf serum (Gibco), 50 μM 2-mercapto-ethanol, 1 mM L-glutamine, 10 mM HEPES, 1 mM sodium pyruvate, 100 U/ml penicillin and 100 μg/ml streptomycin (culture medium) and used as APC. The spleen CD4^+ T-cells (1×10^6/ml in culture medium, 100×1/well) were seeded in triplicate in 96 flat-bottom well plates containing 100×1 of 5×10^6/ml APC. One of the following Ag was added: 10 μg/ml PHA (Sigma); 5 or 10 μg/ml TAChR; 5 or 10 μg/ml of the individual epitope peptides. The concentrations of TAChR and epitope peptides are in the saturating range of the dose dependence curve (Bellone et al., 1991a), and yielded consistent results. Controls were triplicate wells containing CD4^+ cells and APC without any Ag, or with the control peptide (10 μg/ml). After 4 days the cells were labeled for 16 hours with ^3H-thymidine (1 μCi per well, specific activity 6.7 Ci/mmol, Dupont, Boston, Mass.) and harvested (Titertek, Skatron, Sterling, Va.). The ^3H-thymidine incorporation was measured by liquid scintillation, and represented the results as stimulation indexes (S.I.: the ratio between the cpm obtained in the presence of a given stimulus, and the average cpm obtained for non-stimulated control cultures).

[2] = s.c. 200 μg, pooled sera of five mice

For “peptide Tα150-169: synthetic peptide corresponding to residues 150-169 of the TAChR α subunit (TYDGTKVSISPESDRPDLST; UniProt P02710 174-193, looked up, fragment)”, the “reduction of anti-TAChR IgG1” value (serum anti-TAChR Ab; 200 μg, p<0.008) was “very modest reduction”, the “anti-TAChR Ab concentrations compared with sham-treated groups” value (serum anti-TAChR Ab; at 12 weeks, s.c. prevention protocol) was “significantly and substantially lower” and the “IgG1 anti-TAChR” value (serum anti-TAChR Ab; [2]) was 0.22 ± 0.005 µM and 0.27 ± 0.01 µM. For the same substance, the “Total IgG anti-TAChR” value (serum anti-TAChR Ab; [2]) was 0.47 ± 0.01 µM and 0.28 ± 0.015 µM, the “anti-peptide IgG2a” value [1] was “moderate synthesis of IgG2a” and the “response of CD4+ cells from sham-tolerized mice to the peptide” value (spleen CD4+ T-cells; TAChR-immunized B6 mice, 5 or 10 μg/ml) was “responded consistently”. For the same substance, the “response to Tα150-169 of tolerized mice” value (spleen CD4+ T-cells; s.c. prevention protocol) was “never responded”.
